From PubChem BioAssay AID248 (DTP/NCI, 2004)
Where “and” joins values, the source holds several entries; their conditions need not be identical. Equal entries are not always repeated. Toxic doses and inconclusive results are not listed. No stated cut-off is given here; in the data, active means T/C of 150% or more; inactive means T/C below 125%.

Tested on: L1210 leukemia ip in BDF1 mice, survival T/C
Assay: NCI In Vivo Anticancer Drug Screen. Data for tumor model L1210 Leukemia (intraperitoneal) in B6D2F1 (BDF1) mice
Settings: endpoint: mean survival time, higher = longer survival
In short: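 Transplanted-tumor mice were given test agent; controls received vehicle only. Survival readings from the two groups were divided (treated over control).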

[1] = dose: 100.0 mg/kg/injection, schedule: Q01DX001 (ip), vehicle: Klucel (hydroxypropylcellulose) (HPC)
[2] = dose: 100.0 mg/kg/injection, schedule: Q01DX009 (ip), vehicle: Klucel (hydroxypropylcellulose) (HPC)
[3] = dose: 200.0 mg/kg/injection, schedule: Q01DX001 (ip), vehicle: Klucel (hydroxypropylcellulose) (HPC)
[4] = dose: 200.0 mg/kg/injection, schedule: Q01DX009 (ip), vehicle: Klucel (hydroxypropylcellulose) (HPC)
[5] = dose: 400.0 mg/kg/injection, schedule: Q01DX001 (ip), vehicle: Klucel (hydroxypropylcellulose) (HPC)
[6] = dose: 400.0 mg/kg/injection, schedule: Q01DX009 (ip), vehicle: Klucel (hydroxypropylcellulose) (HPC)
[7] = dose: 100.0 mg/kg/injection, schedule: Q04DX003 (ip), vehicle: Klucel (hydroxypropylcellulose) (HPC)
[8] = dose: 200.0 mg/kg/injection, schedule: Q04DX003 (ip), vehicle: Klucel (hydroxypropylcellulose) (HPC)
[9] = dose: 400.0 mg/kg/injection, schedule: Q04DX003 (ip), vehicle: Klucel (hydroxypropylcellulose) (HPC)
[10] = dose: 100.0 mg/kg/injection, schedule: Q01DX001 (ip), vehicle: saline
[11] = dose: 200.0 mg/kg/injection, schedule: Q01DX001 (ip), vehicle: saline
[12] = dose: 400.0 mg/kg/injection, schedule: Q01DX001 (ip), vehicle: saline
[13] = dose: 25.0 mg/kg/injection, schedule: Q01DX009 (ip), vehicle: saline with Tween-80
[14] = dose: 50.0 mg/kg/injection, schedule: Q01DX009 (ip), vehicle: saline with Tween-80
[15] = dose: 100.0 mg/kg/injection, schedule: Q01DX009 (ip), vehicle: saline with Tween-80
[16] = dose: 200.0 mg/kg/injection, schedule: Q01DX009 (ip), vehicle: saline with Tween-80
[17] = dose: 400.0 mg/kg/injection, schedule: Q01DX009 (ip), vehicle: saline with Tween-80
[18] = dose: 12.5 mg/kg/injection, schedule: Q01DX009 (ip), vehicle: Klucel (hydroxypropylcellulose) (HPC)
[19] = dose: 25.0 mg/kg/injection, schedule: Q01DX009 (ip), vehicle: Klucel (hydroxypropylcellulose) (HPC)
[20] = dose: 50.0 mg/kg/injection, schedule: Q01DX009 (ip), vehicle: Klucel (hydroxypropylcellulose) (HPC)
[21] = dose: 100.0 mg/kg/injection, schedule: Q04DX003 (ip), vehicle: saline with Tween-80
[22] = dose: 200.0 mg/kg/injection, schedule: Q04DX003 (ip), vehicle: saline with Tween-80
[23] = dose: 400.0 mg/kg/injection, schedule: Q04DX003 (ip), vehicle: saline with Tween-80
[24] = dose: 100.0 mg/kg/injection, schedule: Q04DX002 (ip), vehicle: Klucel (hydroxypropylcellulose) (HPC)
[25] = dose: 200.0 mg/kg/injection, schedule: Q04DX002 (ip), vehicle: Klucel (hydroxypropylcellulose) (HPC)
[26] = dose: 400.0 mg/kg/injection, schedule: Q04DX002 (ip), vehicle: Klucel (hydroxypropylcellulose) (HPC)

Measured: T/C

CCCCCCc1c(C)nc(N)[nH]c1=O
inactive: [1] 92 % of control | [2] 105 % of control | [3] 89 % of control | [4] 100 % of control | [5] 92 % of control | [6] 97 % of control

COC(=O)c1ccccc1C(=S)N1CCOCC1
inactive: [7] 97 % of control | [8] 96 % of control | [9] 94 % of control

Cn1ncc2cncnc21
inactive: [10] 103 % of control | [11] 103 % of control | [12] 103 % of control

O=C(O)CNC(CSCc1ccccc1)CSCc1ccccc1
inactive: [13] 101 % of control | [14] 106 % of control | [15] 90 % of control | [16] 97 % of control | [17] 103 % of control

O=C(Nc1ccccc1C(F)(F)F)N(Cc1ccccc1)Cc1ccccc1
inactive: [2] 101 % of control | [4] 87 % of control | [6] 95 % of control

COc1ccc(OC)c(/C=C/[N+](=O)[O-])c1
inactive: dose: 6.25 mg/kg/injection, schedule: Q01DX009 (ip), vehicle: Klucel (hydroxypropylcellulose) (HPC) 105 % of control | [18] 102 % of control | [19] 107 % of control | [20] 105 % of control | dose: 100.0 mg/kg/injection, schedule: Q04DX003 (ip), vehicle: gum acacia 97 % of control

NC(=O)c1cc(I)cc(I)c1N
inactive: dose: 100.0 mg/kg/injection, schedule: Q01DX001 (ip), vehicle: saline with Tween-80 95 % of control | dose: 200.0 mg/kg/injection, schedule: Q01DX001 (ip), vehicle: saline with Tween-80 97 % of control | dose: 400.0 mg/kg/injection, schedule: Q01DX001 (ip), vehicle: saline with Tween-80 98 % of control

CCCCCC1CCC(OC(=O)NC)CC1 (configuration not stated)
inactive: [1] 99 % of control | [3] 100 % of control | [5] 94 % of control

CSc1nc(N)nc2c1ncn2C1CC(O)C(CO)O1 (configuration not stated)
inactive: dose: 100.0 mg/kg/injection, schedule: Q01DX005 (ip), vehicle: saline 105 % of control and 112 % of control and 96 % of control | dose: 100.0 mg/kg/injection, schedule: Q01DX009 (ip), vehicle: saline 121 % of control | dose: 200.0 mg/kg/injection, schedule: Q01DX005 (ip), vehicle: saline 112 % of control and 121 % of control and 91 % of control | dose: 200.0 mg/kg/injection, schedule: Q01DX009 (ip), vehicle: saline 115 % of control | dose: 400.0 mg/kg/injection, schedule: Q01DX009 (ip), vehicle: saline 116 % of control

N#CSC/C=C/Cl
inactive: [20] 94 % of control | [2] 107 % of control | [7] 92 % of control | [8] 90 % of control

O=[N+]([O-])/C=C/c1ccc(Cl)cc1
inactive: [19] 97 % of control | [20] 103 % of control

O=C1CCC(C(=O)NC(Cc2cncn2Cc2ccccc2)C(=O)NC(COCc2ccccc2)Cc2c[nH]c3ccccc23)N1 (configuration not stated)
inactive: [15] 96 % of control | [16] 104 % of control | [17] 94 % of control

O=C(Nc1cccc(Cl)c1Cl)N1CCN(c2ccccc2)CC1
inactive: [2] 92 % of control | [4] 96 % of control | [6] 97 % of control

O=C1CN=C(c2ccccn2)c2cc(Cl)ccc2N1CCO
inactive: [15] 106 % of control | [21] 96 % of control | [16] 101 % of control | [22] 112 % of control | [17] 98 % of control | [23] 91 % of control

CC(N)CC(N)CC(=O)O (configuration not stated)
inactive: [10] 96 % of control and 98 % of control | [11] 98 % of control and 104 % of control | [12] 91 % of control and 102 % of control

COc1ccc(NC(=O)c2ccc(Cl)cc2Cl)c(OC)c1
inactive: [24] 102 % of control | [25] 97 % of control | [26] 102 % of control

CCOC(=O)c1c(Cl)cc(C)nc1C
inactive: [21] 93 % of control | [22] 101 % of control | [23] 95 % of control

CCCCCN1C(=O)NC(=O)C(Cl)C1=O (configuration not stated)
inactive: [10] 89 % of control

Cc1cc(C)cc(OCCO)c1
inactive: [24] 97 % of control | [25] 102 % of control | [26] 91 % of control

CN=C(NCc1ccccc1)c1ccc(NC(=O)c2ccc(C(=O)Nc3ccc(C(=NC)NCc4ccccc4)cc3)cc2)cc1
inactive: dose: 1.9 mg/kg/injection, schedule: Q01DX Z (ip), vehicle: methylcellulose (MC) 97 % of control | dose: 3.8 mg/kg/injection, schedule: Q01DX Z (ip), vehicle: methylcellulose (MC) 108 % of control | dose: 7.5 mg/kg/injection, schedule: Q01DX Z (ip), vehicle: methylcellulose (MC) 93 % of control

CCN(CC)CCCCCCn1c2ccccc2c2c(C)c3cnccc3c(C)c21
inactive: [13] 108 % of control | [14] 102 % of control | [15] 105 % of control

O=C(Nc1cccc2ccccc12)Oc1ccc(C2CCCCC2)cc1
inactive: dose: 100.0 mg/kg/injection, schedule: Q01DX009 (ip), vehicle: carboxymethylcellulose (CMC) 97 % of control and 90 % of control | [24] 89 % of control | dose: 100.0 mg/kg/injection, schedule: Q04DX002 (ip), vehicle: carboxymethylcellulose (CMC) 100 % of control and 101 % of control | dose: 100.0 mg/kg/injection, schedule: Q04DX003 (ip), vehicle: carboxymethylcellulose (CMC) 101 % of control | dose: 200.0 mg/kg/injection, schedule: Q01DX009 (ip), vehicle: carboxymethylcellulose (CMC) 87 % of control and 92 % of control | [25] 96 % of control | dose: 200.0 mg/kg/injection, schedule: Q04DX002 (ip), vehicle: carboxymethylcellulose (CMC) 101 % of control and 90 % of control | dose: 200.0 mg/kg/injection, schedule: Q04DX003 (ip), vehicle: carboxymethylcellulose (CMC) 100 % of control | dose: 400.0 mg/kg/injection, schedule: Q01DX009 (ip), vehicle: carboxymethylcellulose (CMC) 97 % of control and 90 % of control | [26] 101 % of control | dose: 400.0 mg/kg/injection, schedule: Q04DX002 (ip), vehicle: carboxymethylcellulose (CMC) 95 % of control and 90 % of control | dose: 400.0 mg/kg/injection, schedule: Q04DX003 (ip), vehicle: carboxymethylcellulose (CMC) 92 % of control

OCC(O)COCc1ccccc1 (configuration not stated)
inactive: [21] 109 % of control | [22] 104 % of control | [23] 106 % of control

CCCCCCCCCCCCSCCNC(=O)CCl
inactive: [2] 87 % of control | [7] 95 % of control | [4] 92 % of control | [8] 92 % of control | [6] 88 % of control | [9] 92 % of control

O=C(O)CCCC(CC(=O)O)c1ccccc1 (configuration not stated)
inactive: dose: 50.0 mg/kg/injection, schedule: Q04DX002 (ip), vehicle: saline 108 % of control | dose: 100.0 mg/kg/injection, schedule: Q04DX002 (ip), vehicle: saline 104 % of control | dose: 200.0 mg/kg/injection, schedule: Q04DX002 (ip), vehicle: saline 101 % of control

O=NN(CCCl)C(=O)Nc1ccc(S(=O)(=O)F)cc1
inactive: dose: 500.0 mg/kg/injection, schedule: Q01DX001 (ip), vehicle: carboxymethylcellulose (CMC) 110 % of control

CCOC(=O)NN1C(=O)c2cccc3c([N+](=O)[O-])ccc(c23)C1=O
inactive: [18] 105 % of control | [19] 94 % of control | [20] 96 % of control

CC(C)Cc1nc2c([nH]1)c(=O)n(C)c(=O)n2C
inactive: dose: 50.0 mg/kg/injection, schedule: Q01DX001 (ip), vehicle: saline 96 % of control | [10] 104 % of control | [11] 98 % of control

CSc1cc2c(cc1NC(C)=O)C(=O)c1ccccc1-2
inactive: dose: 100.0 mg/kg/injection, schedule: Q01DX001 (ip), vehicle: carboxymethylcellulose (CMC) 90 % of control | dose: 200.0 mg/kg/injection, schedule: Q01DX001 (ip), vehicle: carboxymethylcellulose (CMC) 106 % of control | dose: 400.0 mg/kg/injection, schedule: Q01DX001 (ip), vehicle: carboxymethylcellulose (CMC) 109 % of control
